Source: US11584744B2 (UNIVERSITY OF WASHINGTON, priority 2017, dated 2023)
In brackets after ≈: the same amount, converted by molar mass. Several values for one entry are separate records, joined by “and”; a condition that tells them apart may be missing. Equal entries are not always repeated. Where two headings read alike, the source gives them in different places.

Tests used:
[1] = molecular target: MetRS (C. parvum) (Cryptosporidium parvum, UniProt Q5CVN0); assay: MetRS (C. parvum) enzyme inhibition; format: biochemical; settings: read-out: (C) MetRS (C. parvum) IC50
Chain of MetRS (C. parvum) (Q5CVN0 entry or part of it): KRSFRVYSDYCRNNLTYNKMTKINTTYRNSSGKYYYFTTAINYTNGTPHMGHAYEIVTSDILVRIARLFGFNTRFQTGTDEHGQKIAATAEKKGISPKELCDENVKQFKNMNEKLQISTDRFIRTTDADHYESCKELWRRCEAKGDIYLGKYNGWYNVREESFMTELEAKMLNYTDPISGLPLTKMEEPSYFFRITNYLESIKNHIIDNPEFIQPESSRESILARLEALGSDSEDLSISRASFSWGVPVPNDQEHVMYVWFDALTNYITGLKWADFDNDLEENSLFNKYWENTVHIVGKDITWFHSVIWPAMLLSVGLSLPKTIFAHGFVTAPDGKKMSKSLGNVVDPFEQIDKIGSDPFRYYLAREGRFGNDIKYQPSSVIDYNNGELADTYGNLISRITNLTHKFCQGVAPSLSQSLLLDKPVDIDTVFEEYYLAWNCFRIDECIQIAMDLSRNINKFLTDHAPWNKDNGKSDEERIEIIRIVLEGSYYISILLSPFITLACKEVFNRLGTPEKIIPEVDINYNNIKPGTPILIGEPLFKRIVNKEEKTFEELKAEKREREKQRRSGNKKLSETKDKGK

[2] = tested on: S. aureus MSSA (ATCC 29213); assay: MIC susceptibility testing; format: cell-based, Staphylococcus aureus; settings: S. aureus ATCC 29213; for MIC: Staphylococcus aureus, read-out: (F) S. aureus (ATCC 29213) MIC
[3] = tested on: S. aureus MRSA (ATCC 33591); assay: MIC susceptibility testing; format: cell-based, Staphylococcus aureus; settings: MRSA ATCC33591; for MIC: Staphylococcus aureus, read-out: (G) MRSA (ATCC33591) MIC
Method in brief: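 CLSI broth microdilution with two-fold compound dilutions, in triplicate; cells added in medium at 1×10^6 CFUs/mL, DMSO ≤0.5%. Media: MHB for S. aureus, CA-MHB for E. coli and E. faecium, CA-MHB plus 3% laked horse blood for S. pyogenes (5% CO2).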

[4] = molecular target: T1, MetRS (T. brucei) (Trypanosoma brucei brucei, UniProt Q38C91); assay: MetRS (T. brucei) enzyme inhibition; format: biochemical
T1 sequence (Q38C91 1-773): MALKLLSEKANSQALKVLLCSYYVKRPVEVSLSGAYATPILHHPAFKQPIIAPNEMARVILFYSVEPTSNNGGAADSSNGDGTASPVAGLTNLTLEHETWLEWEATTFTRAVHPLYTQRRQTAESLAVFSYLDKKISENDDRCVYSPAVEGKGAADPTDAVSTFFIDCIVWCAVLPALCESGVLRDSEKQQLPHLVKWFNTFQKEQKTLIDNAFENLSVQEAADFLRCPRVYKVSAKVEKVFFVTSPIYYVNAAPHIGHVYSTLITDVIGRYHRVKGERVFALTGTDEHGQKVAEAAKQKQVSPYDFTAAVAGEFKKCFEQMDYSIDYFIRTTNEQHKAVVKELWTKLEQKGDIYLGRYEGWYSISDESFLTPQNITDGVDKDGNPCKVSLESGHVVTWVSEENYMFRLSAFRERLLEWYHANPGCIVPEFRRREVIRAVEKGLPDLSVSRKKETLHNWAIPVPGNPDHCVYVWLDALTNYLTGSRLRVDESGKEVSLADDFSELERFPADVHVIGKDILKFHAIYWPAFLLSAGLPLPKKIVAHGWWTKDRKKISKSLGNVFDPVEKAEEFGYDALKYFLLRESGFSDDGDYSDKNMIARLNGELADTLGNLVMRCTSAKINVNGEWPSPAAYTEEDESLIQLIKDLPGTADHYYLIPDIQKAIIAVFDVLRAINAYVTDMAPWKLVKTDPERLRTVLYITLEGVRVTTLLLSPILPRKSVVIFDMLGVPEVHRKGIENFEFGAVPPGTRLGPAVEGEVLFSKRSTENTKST

[5] = tested on: T. cruzi; assay: T. cruzi growth inhibition; format: cell-based, Trypanosoma cruzi; settings: read-out: (E) T. cruzi EC50
[6] = tested on: T. brucei; assay: T. brucei growth inhibition; format: cell-based, Trypanosoma brucei; settings: read-out: (D) T. brucei EC50
[7] = tested on: C. parvum; assay: C. parvum growth inhibition; format: cell-based, Cryptosporidium parvum; settings: read-out: (J) C. parvum EC50
[8] = tested on: E. faecium VRE (ATCC 51559); assay: MIC susceptibility testing; format: cell-based, Enterococcus faecium; settings: E. faecium ATCC 51559; for MIC: Enterococcus faecium, read-out: (I) E. faecium (ATCC 51559) MIC
From the text: Media and culture conditions. Mueller Hinton broth (MHB), cation adjusted Mueller Hinton broth (CA-MHB), and Brain Heart Infusion broth (BHI) were purchased from Becton Dickinson (Franklin Lakes, N.J.). Tryptic soy agar (TSA) plates, TSA with 5% sheep blood plates, and CA-MHB with 3% laked horse blood were purchased from Remel (San Diego, Calif.). MHB was used to assay all Staphylococcus aureus strains. CA-MHB was used for Staphylococcus epidermidis, Enterococcus faecalis, Enterococcus faecium, Escherichia coli, and Pseudomonas aeruginosa. CA-MHB supplemented with 3% laked horse blood was used for Streptococcus pneumoniae and Streptococcus pyogenes. Staphylococcus, Enterococcus, Escherichia, and Pseudomonas strains were cultured at 37° C. with ambient air. Streptococcus strains were cultured in 37° C. with 5% CO2. Separate conditions for radiolabeled precursor uptake assays are described below.
Susceptibility testing: Minimum inhibitory concentration (MIC) determinations were performed in triplicate in 96-well round bottom microtiter plates (Corning, Corning N.Y.) as described by the Clinical and Laboratory Standards Institute (CLSI). Serial two-fold dilutions of compounds were added to plates in 50 μL volumes. An additional 50 μL of media containing bacterial cells (1×10^6 CFUs/mL) was then added to each well. Maximum DMSO concentrations were 0.5%. Plates were incubated at 37° C. for at least 18 h before reading the susceptibility result by optical absorbance (OD600) using a BioTek ELx800. The lowest concentration causing ≥90% growth inhibition compared to the untreated control was recorded as the MIC (and also corresponded to the visual MIC). MICs were measured at least twice and the higher value (if different) was recorded herein.

SMILES | IC50 [1] | MIC [2] | MIC [3] | IC50 [4] | EC50 ([5]; Trypanosoma cruzi) | EC50 ([6]; Trypanosoma brucei) | EC50 [6] | EC50 ([7]; Cryptosporidium parvum) | MIC [8] | (F) S. aureus (ATCC 29213) MIC [2] | EC50 [5] | EC50 [7] | (I) E. faecium (ATCC 51559) MIC [8] | (G) MRSA (ATCC33591) MIC [3]
O=c1n(Cc2nc3nc(F)ccc3[nH]2)cc(Cc2ccc(Cl)cc2Cl)n1CCO [Compound 2086, 4-[(2,4-dichlorophenyl)-methyl]-1-({5-fluoro-1H-imidazo[4,5-b]pyridin-2-yl}methyl)-3-(2-hydroxyethyl)-2,3-dihydro-1H-imidazol-2-one] | 41.2 nM | 0.964 µg/mL (≈ 2.21 µM) | > 2.5 µg/mL | < 40 nM | 552 nM | 5.94 nM | 7.64 nM | – | – | – | – | – | – | –
CCn1c(Cc2ccc(Cl)cc2Cl)cn(Cc2cc3nc(F)ccc3[nH]2)c1=O [Compound 2112, 5-(2,4-dichlorobenzyl)-1-ethyl-3-((5-fluoro-1H-pyrrolo[3,2-b]pyridin-2-yl)methyl)-1H-imidazol-2(3H)-one] | < 40 nM | 0.254 µg/mL (≈ 0.606 µM) | 0.405 µg/mL (≈ 0.966 µM) | < 40 nM | 176 nM | 9.56 nM | – | 620 nM | – | – | – | – | – | –
COc1ccc(-c2ccc(N)c3nc(Cc4nc5nc(Cl)ccc5[nH]4)cn23)c(Cl)c1 [Compound 2171, 2-({5-chloro-1H-imidazo[4,5-b]pyridin-2-yl}methyl)-5-(2-chloro-4-methoxyphenyl)imidazo[1,2-a]pyridin-8-amine] | 75.3 nM | 1.16 µg/mL (≈ 2.64 µM) | 1.87 µg/mL (≈ 4.26 µM) | < 40 nM | 302 nM | 29 nM | – | – | – | – | – | – | – | –
O=c1n(Cc2nc3nc(Cl)ccc3[nH]2)cc(Cc2ccc(Cl)cc2Cl)n1CC1(O)CC1 [Compound 2225, 1-({5-chloro-1H-imidazo[4,5-b]pyridin-2-yl}methyl)-4-[(2,4-dichlorophenyl)-methyl]-3-[(1-hydroxycyclopropyl)methyl]-2,3-dihydro-1H-imidazol-2-one] | 49.2 nM | > 2.5 µg/mL | – | – | 245 nM | 14.5 nM | 26.9 nM | 1840 nM | 1.52 µg/mL (≈ 3.17 µM) | 3.02 µg/mL | – | – | – | –
COc1ccc(-c2cccc3c2CN(Cc2nc4c(N)ncnc4[nH]2)C3=O)c(Cl)c1 [Compound 2239, 2-((6-amino-9H-purin-8-yl)methyl)-4-(2-chloro-4-methoxyphenyl)isoindolin-1-one] | < 40 nM | > 2 µg/mL | > 2 µg/mL | < 40 nM | 3880 nM | 267 nM | – | > 2000 nM | – | – | – | – | – | –
COc1ccc(-c2cccc3nn(Cc4nc5nc(Cl)ccc5[nH]4)cc23)c(Cl)c1 [Compound 2245, 2-({5-chloro-1H-imidazo[4,5-b]pyridin-2-yl}methyl)-4-(2-chloro-4-methoxyphenyl)-2H-indazole] | < 40 nM | 0.0924 µg/mL (≈ 0.218 µM) | 0.0378 µg/mL (≈ 0.0891 µM) | – | – | 25.4 nM | 17.3 nM | > 2000 nM | – | 0.0526, μg/ml and 0.0902 μg/ml | – | – | – | –
COc1cc(Cl)c(-c2nccc3nc(Cc4nc5nc(Cl)ccc5[nH]4)cn23)cc1OC [Compound 2246, 2-({5-chloro-1H-imidazo[4,5-b]pyridin-2-yl}methyl)-5-(2-chloro-4,5-dimethoxyphenyl)imidazo[1,2-c]pyrimidine] | 55.6 nM | 0.277 µg/mL (≈ 0.608 µM) | 0.115 µg/mL (≈ 0.253 µM) | – | 17.9 nM | 6.68 nM | 5.68 nM | 359 nM | – | 0.497 µg/mL | 20.6 nM | 300 nM | – | –
COc1ccc(Cc2cn(Cc3nc4c(C)c(Cl)ccc4[nH]3)c(=O)n2CC(C)(C)O)c(Cl)c1 [Compound 2248, 4-[(2-chloro-4-methoxyphenyl)methyl]-1-[(5-chloro-4-methyl-1H-1,3-benzodiazol-2-yl)methyl]-3-(2-hydroxy-2-methylpropyl)-2,3-dihydro-1H-imidazol-2-one] | 40.8 nM | – | – | – | 491 nM | 81.8 nM | – | > 2000 nM | 1.98 µg/mL (≈ 4.05 µM) | – | – | – | 2.23 µg/mL | –
COc1ccc(-c2nccn3c(=S)n(Cc4nc5nc(Cl)ccc5[nH]4)cc23)c(Cl)c1 [Compound 2250, 2-({5-chloro-1H-imidazo[4,5-b]pyridin-2-yl}methyl)-8-(2-chloro-4-methoxyphenyl)-2H,3H-imidazo[1,5-a]pyrazine-3-thione] | – | – | – | – | – | 28.9 nM | – | – | 1.35 µg/mL (≈ 2.95 µM) | – | – | – | 1.01 µg/mL | –
COc1ccc(-c2cccc3c2CN(Cc2nc4nc(C)nc(N)c4[nH]2)C3=O)c(Cl)c1 [Compound 2251, 2-((6-amin0-2-methyl-7H-purin-8-yl)methyl)-4-(2-chloro-4-methoxyphenyl)isoindolin-1-one] | < 40 nM | – | – | – | 811 nM | 166 nM | – | > 2000 nM | > 4 µg/mL | – | – | – | – | –
COc1ccc(-c2cccc3c2CN(Cc2nc4nc(C(F)(F)F)nc(N)c4[nH]2)C3=O)c(Cl)c1 [Compound 2252, 2-((6-amin0-2-(trifluoromethyl)-7H-purin-8-yl)methyl)-4-(2-chloro-4-methoxyphenyl)isoindolin-1-one] | 431 nM | – | > 2 µg/mL | – | 630 nM | 268 nM | – | – | – | – | – | – | – | –
COc1ccc(-c2nccn3c(=O)n(Cc4nc5c(Cl)c(Cl)ccc5[nH]4)cc23)c(Cl)c1 [Compound 2254, 8-(2-chloro-4-methoxyphenyl)-2-[(6,7-dichloro-1H-1,3-benzodiazol-2-yl)methyl]-2H,3H-imidazo[1,5-a]pyrazin-3-one] | 138 nM | – | > 2 µg/mL | – | – | 168 nM | – | – | – | – | – | – | – | –
COc1cc(Cl)c(-c2nccc3nc(Cc4nc5c(Cl)c(Cl)ccc5[nH]4)cn23)cc1OC [Compound 2255, 6,7-dichlor0-2-{[5-(2-chloro-4,5-dimethoxyphenyl)imidazo[1,2-c]pyrimidin-2-yl]methyl}-1H-1,3-benzodiazole] | 277 nM | 1.82 µg/mL (≈ 3.72 µM) | 1.82 µg/mL (≈ 3.72 µM) | – | 165 nM | 71.5 nM | – | > 2000 nM | – | 2.93 µg/mL | – | – | – | –
COc1ccc(-c2nccc3nc(Cc4nc5ccc(Cl)nc5[nH]4)cn23)c(Cl)c1 [Compound 2256, 2-({5-chloro-1H-imidazo[4,5-b]pyridin-2-yl}methyl)-5-(2-chloro-4-methoxyphenyl)imidazo[1,2-c]pyrimidine] | – | – | > 2 µg/mL | – | 76.5 nM | 12.3 nM | 20.3 nM | 1940 nM | – | – | 77.2 nM | – | – | 1.59 µg/mL
COc1ccc(Cc2cn(Cc3nc4nc(Br)ccc4[nH]3)c(=O)n2CC(F)F)c(Cl)c1 [Compound 2257, 1-({5-bromo-1H-imidazo[4,5-b]pyridin-2-yl}methyl)-4-[(2-chloro-4-methoxyphenyl)methyl]-3-(2,2-difluoroethyl)-2,3-dihydro-1H-imidazol-2-one] | – | – | 0.876 µg/mL (≈ 1.71 µM) | – | 8.03 nM | – | – | 310 nM | – | – | 8.17 nM | 219 nM | – | –
